pKd: −log10 of the molar value. “And” between values parts separate entries of the source, which are not always exact repeats. Identical values can stand only once. Like-named read-outs stand apart in the source and are kept apart here.
Key:
ΔDE (mHCN2 1-640) = target: T1, ΔDE (mHCN2 1-640) (Mus musculus, UniProt O88703); assay: Confocal patch-clamp fluorometry (cPCF), oocyte macropatches; type: binding; settings: for factor of relative fluorescence increase: individual patches
T1 construct: full length mHCN2 and ΔDE (mHCN2 1-640) mutant channels, both expressed in Xenopus oocytes; expressed in transfected cells; host or cells: Xenopus laevis oocytes (cRNA injection, pGEMHE)
T1 sequence (O88703 1-640): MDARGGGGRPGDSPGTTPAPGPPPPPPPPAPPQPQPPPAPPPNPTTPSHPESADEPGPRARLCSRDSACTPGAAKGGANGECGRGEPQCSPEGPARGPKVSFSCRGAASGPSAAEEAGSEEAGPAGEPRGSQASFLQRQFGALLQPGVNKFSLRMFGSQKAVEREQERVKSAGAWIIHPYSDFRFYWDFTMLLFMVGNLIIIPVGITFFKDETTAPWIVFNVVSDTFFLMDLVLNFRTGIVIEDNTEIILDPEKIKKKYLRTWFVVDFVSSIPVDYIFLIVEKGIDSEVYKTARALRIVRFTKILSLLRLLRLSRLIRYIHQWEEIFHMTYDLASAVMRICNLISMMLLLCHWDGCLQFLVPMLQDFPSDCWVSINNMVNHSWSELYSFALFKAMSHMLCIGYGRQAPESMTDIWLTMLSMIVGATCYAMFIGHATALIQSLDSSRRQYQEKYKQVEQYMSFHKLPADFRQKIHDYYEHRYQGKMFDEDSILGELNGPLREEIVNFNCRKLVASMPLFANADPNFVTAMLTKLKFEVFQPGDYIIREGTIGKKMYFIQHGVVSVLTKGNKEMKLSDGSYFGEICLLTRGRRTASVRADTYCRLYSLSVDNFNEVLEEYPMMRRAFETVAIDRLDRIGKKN
Experimental: (§1) We tested this hypothesis using confocal patch-clamp fluorometry (cPCF)[8], measuring current activation and ligand binding in parallel.
(§2) Oocytes were surgically removed from adult females of the South African clawed frog Xenopus laevis under anesthesia (0.3% MS-222 (tricaine methanesulfonate) (Pharmaq, Fordingbridge, UK)). The surgery procedures were carried out in accordance with the German Animal Welfare Act with the approval of the Thuringian State Office for Consumer Protection on 30.08.2013 and 09.05.2018. The oocytes were treated with collagenase A (3 mg/mL; Roche Diagnostics (Grenzach-Wyhlen, Germany)) for 105 min in Ca^2+-free Barth solution containing 82.5 mM NaCl, 2 mM KCl, 1 mM MgCl2, and 5 mM HEPES (pH 7.5). Oocytes of stages IV and V were manually dissected and injected with cRNA-encoding mHCN2 channels of Mus musculus or constructs carrying a point mutation. After injection with cRNA, the oocytes were cultured at 18 °C for 2–10 days in Barth solution containing 84 mM NaCl, 1 mM KCl, 2.4 mM NaHCO3, 0.82 mM MgSO4, 0.41 mM CaCl2, 0.33 mM Ca(NO3)2, 7.5 mM Tris, cefuroxime, and penicillin/streptomycin (pH 7.4). The procedures had approval from the authorized animal ethics committee of the Friedrich Schiller University Jena. The methods were performed according to approved guidelines. Oocytes harvested in our laboratory were complemented with ready-to-use oocytes purchased from EcoCyte Bioscience (Dortmund, Germany).
(§3) The recordings were performed with an LSM 710 confocal microscope (Carl Zeiss, Jena, Germany) and were triggered by the ISO3 software (MFK, Niedernhausen, Germany). To distinguish the fluorescence of the nonbound f1cAMP from that of the bound f1cAMP, a second, chemically related dye, DY647 (Dyomics, Jena, Germany), was also added to the bath solution. The 543- and 633-nm lines of an He-Ne laser were used to excite f1cAMP and DY647, respectively. For quantifying the bound f1cAMP, the fluorescence intensities of the red and the green channels were corrected for small offsets, and the fluorescence in the red channel was scaled to the fluorescence in the green channel in the bath. The difference between the measured green and the scaled red profile for each pixel of the confocal image represents the fraction of the fluorescence signal originating from the bound f1cAMP. The free patch membrane (patch dome) only was used to quantify binding by setting a mask at a region of interest. The fluorescence, F, was averaged over all pixels inside this mask and normalized in each patch concerning the fluorescence at saturating (f1cAMP) and full channel activation (−130 mV), Fmax. The recording rate of the confocal images was 10 Hz.

full length mHCN2 [1] = target: T2, full length mHCN2 (Mus musculus, UniProt O88703); assay: as above; type: binding; settings: for factor of relative fluorescence increase: individual patches
T2 construct: to full length mHCN2 and ΔDE (mHCN2 1-640) mutant channels, both expressed in Xenopus oocytes; expressed in transfected cells; host or cells: Xenopus laevis oocytes (cRNA injected; pGEMHE vector); excised macropatches
T2 sequence (O88703 1-863): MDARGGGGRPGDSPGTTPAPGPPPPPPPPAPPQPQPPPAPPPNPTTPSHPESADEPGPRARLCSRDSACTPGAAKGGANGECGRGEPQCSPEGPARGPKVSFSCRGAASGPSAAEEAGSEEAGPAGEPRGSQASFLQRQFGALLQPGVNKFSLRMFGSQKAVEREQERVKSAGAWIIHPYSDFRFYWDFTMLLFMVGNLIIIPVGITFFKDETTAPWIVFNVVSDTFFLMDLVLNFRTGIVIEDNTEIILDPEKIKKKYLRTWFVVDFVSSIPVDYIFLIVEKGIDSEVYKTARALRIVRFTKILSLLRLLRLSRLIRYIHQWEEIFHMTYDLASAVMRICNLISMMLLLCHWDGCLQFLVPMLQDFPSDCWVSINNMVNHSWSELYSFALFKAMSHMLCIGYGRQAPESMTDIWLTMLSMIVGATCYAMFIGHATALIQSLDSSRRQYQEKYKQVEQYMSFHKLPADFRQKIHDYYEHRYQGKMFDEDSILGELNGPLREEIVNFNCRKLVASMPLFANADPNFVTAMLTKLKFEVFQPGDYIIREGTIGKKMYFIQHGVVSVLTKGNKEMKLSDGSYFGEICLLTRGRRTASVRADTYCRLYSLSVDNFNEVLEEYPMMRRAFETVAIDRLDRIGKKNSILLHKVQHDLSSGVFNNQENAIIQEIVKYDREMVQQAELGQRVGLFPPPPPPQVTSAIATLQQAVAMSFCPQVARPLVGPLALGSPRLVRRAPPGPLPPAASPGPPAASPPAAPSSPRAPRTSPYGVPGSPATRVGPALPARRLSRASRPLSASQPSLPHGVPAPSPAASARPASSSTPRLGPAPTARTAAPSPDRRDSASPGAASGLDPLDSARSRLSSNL
Experimental: as §1, §2, §3

full length mHCN2 [2] = target: T2, full length mHCN2; settings: read-out: binding affinity BC50, cited from earlier work

8-Cy3B-AHT-cAMP [f1cAMP]
mean increase of fluorescence intensity upon activation, F–130 mV/F−30mV (ΔDE (mHCN2 1-640); 0.25 µM f1cAMP, n = 4): 2.1 ± 0.3 | factor of relative fluorescence increase (ΔDE (mHCN2 1-640); fcAMP 0.25 µM): 1.6 and 2.4 and 1.7 and 2.6 | factor of relative fluorescence increase (ΔDE (mHCN2 1-640); fcAMP 2.5 µM): 1.1 and 1.3 and 1.2 | mean increase of fluorescence intensity upon activation, F–130 mV/F−30mV (full length mHCN2 [1]; 0.25 µM f1cAMP, n = 9): 1.6 ± 0.1 | F-130 mV/F−30mV (full length mHCN2 [1]; 2.5 µM f1cAMP, n = 7): 1.1 ± 0.04 | factor of relative fluorescence increase (full length mHCN2 [1]; fcAMP 0.25 µM): 1.7 and 1.6 and 1.9 and 2.2 and 1.3 and 1.2 | factor of relative fluorescence increase (full length mHCN2 [1]; fcAMP 2.5 µM): 0.9 and 1.1 and 1.3 and 1.0 and 1.2 | pKd (full length mHCN2 [2]; activated mHCN2 channels): 6.60 | pKd (full length mHCN2 [2]; non-activated mHCN2 channels): 6.01

— PMC10825183 (Nature Communications, 2024)
